Test results as given in patent publication EP0846683B1, “4-Hydroxy-piperidine derivatives” (F. HOFFMANN-LA ROCHE AG, priority 1996, dated 1998).
Where a name gives a salt, the structure may show the parent alone.

Assays:
NMDA receptor = target: T1, NMDA receptor (Rattus norvegicus, UniProt P35439+Q00960); experiment: 3H-Ro 25-6981 binding (displacement, rat brain membranes); conditions: 5 nM 3H-Ro 25-6981, 2 hours at 4°C
T1 construct: Membranes were prepared by homogenization of the whole brain minus cerebellum and medulla oblongata; from tissue; host or cells: rat whole brain minus cerebellum and medulla oblongata, membranes
T1 sequence (Q00960 27-1482, other chains not shown): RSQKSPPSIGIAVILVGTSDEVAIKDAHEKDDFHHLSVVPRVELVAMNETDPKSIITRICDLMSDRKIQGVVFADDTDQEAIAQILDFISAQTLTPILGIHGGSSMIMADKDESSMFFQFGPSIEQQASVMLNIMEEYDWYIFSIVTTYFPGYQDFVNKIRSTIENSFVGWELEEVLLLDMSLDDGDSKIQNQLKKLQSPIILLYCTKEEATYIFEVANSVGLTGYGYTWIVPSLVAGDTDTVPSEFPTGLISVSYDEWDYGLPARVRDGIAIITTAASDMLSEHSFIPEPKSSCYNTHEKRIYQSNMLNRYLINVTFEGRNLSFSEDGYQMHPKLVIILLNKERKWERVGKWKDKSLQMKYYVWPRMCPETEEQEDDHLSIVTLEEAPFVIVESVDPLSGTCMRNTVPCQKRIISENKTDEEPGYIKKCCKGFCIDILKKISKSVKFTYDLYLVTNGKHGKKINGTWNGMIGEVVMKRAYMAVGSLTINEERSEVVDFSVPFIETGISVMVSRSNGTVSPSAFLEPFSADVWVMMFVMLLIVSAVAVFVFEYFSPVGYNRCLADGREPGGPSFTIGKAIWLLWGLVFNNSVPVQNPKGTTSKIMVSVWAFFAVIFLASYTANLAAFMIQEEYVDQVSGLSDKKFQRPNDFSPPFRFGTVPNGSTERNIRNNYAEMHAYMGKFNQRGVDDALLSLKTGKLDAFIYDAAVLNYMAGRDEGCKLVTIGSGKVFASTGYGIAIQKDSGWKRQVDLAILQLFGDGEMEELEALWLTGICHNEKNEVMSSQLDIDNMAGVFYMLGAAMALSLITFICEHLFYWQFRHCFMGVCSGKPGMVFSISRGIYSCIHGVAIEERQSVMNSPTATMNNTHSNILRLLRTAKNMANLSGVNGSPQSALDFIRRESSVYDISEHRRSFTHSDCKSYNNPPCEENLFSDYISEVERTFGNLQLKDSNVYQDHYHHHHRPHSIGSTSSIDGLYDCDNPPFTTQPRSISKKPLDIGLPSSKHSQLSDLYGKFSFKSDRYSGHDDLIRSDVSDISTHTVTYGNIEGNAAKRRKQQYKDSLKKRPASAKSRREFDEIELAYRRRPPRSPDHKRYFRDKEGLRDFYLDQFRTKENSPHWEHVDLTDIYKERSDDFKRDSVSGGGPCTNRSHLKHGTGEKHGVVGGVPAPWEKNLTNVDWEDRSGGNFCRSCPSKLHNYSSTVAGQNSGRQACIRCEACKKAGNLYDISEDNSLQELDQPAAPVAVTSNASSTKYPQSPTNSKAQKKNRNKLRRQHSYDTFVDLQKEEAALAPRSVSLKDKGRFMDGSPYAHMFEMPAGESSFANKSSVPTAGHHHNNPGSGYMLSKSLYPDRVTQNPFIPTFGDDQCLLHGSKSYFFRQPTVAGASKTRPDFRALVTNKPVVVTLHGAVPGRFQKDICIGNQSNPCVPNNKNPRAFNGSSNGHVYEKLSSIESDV
Procedure: 3H-Ro 25-6981 binding (Ro 25-6981 is [R-(R*,S*)]-a-(4-Hydroxy-phenyl)-b-methyl-4-(phenyl-methyl)-1-piperidine propanol)
(§1) Male Füllinsdorf albino rats weighing between 150-200 g were used. Membranes were prepared by homogenization of the whole brain minus cerebellum and medulla oblongata with a Polytron (10.000 rpm, 30 seconds), in 25 volumes of a cold Tris-HCl 50 mM, EDTA 10 mM, pH 7.1 buffer. The homogenate was centrifuged at 48.000 g for 10 minutes at 4°C. The pellet was resuspended using the Polytron in the same volume of buffer and the homogenate was incubated at 37°C for 10 minutes. After centrifugation the pellet was homogenized in the same buffer and frozen at -80°C for at least 16 hours but not more than 10 days. For the binding assay the homogenate was thawed at 37°C, centrifuged and the pellet was washed three times as above in a Tris-HCl 5 mM, pH 7.4 cold buffer. The final pellet was resuspended in the same buffer and used at a final concentration of 200 µg of protein/ml.
3H-Ro 25-6981 binding experiments were performed using a Tris-HCl 50 mM, pH 7.4 buffer. For displacement experiments 5 nM of 3H-Ro 25-6981 were used and non specific binding was measured using 10 µM of tetrahydroisoquinoline and usually it accounts for 10% of the total. The incubation time was 2 hours at 4°C and the assay was stopped by filtration on Whatmann GF/B glass fiber filters (Unifilter-96, Packard, Zürich, Switzerland). The filters were washed 5 times with cold buffer. The radioactivity on the filter was counted on a Packard Top-count microplate scintillation counter after addition of […] of microscint 40 (Canberra Packard S.A., Zürich, Switzerland).
The effects of compounds were measured using a minimum of 8 concentrations and repeated at least once. The pooled normalized values were analyzed using a non-linear regression calculation program which provide IC50 with their relative upper and lower 95% confidence limits (RS1, BBN, USA).

3H-Prazosine binding = 3H-Prazosine binding (displacement, rat brain membranes); conditions: 0.2 nM 3H-Prazosine, 30 minutes at room temperature
Procedure: as §1, with “a Plytron” for “a Polytron”, “EDTA 10mM,” for “EDTA 10 mM,”, “Tris-HCl 5mM,” for “Tris-HCl 5 mM,”
3H-Prazosine binding experiments were performed using a Tris-HCl 50 mM, pH 7.4 buffer. For displacement experiments 0.2 nM of 3H-Prazosine were used and non specific binding was measured using 100 µM of Chlorpromazine. The incubation time was 30 minutes at room temperature and the assay was stopped by filtration on Whatman GF/B glass fiber filters (Unifilter-96, Canberra Packard S.A., Zürich, Switzerland). The filters were washed 5 times with cold buffer. The radioactivity on the filter was counted on a Packard Top-count microplate scintillation counter after addition of […] of microscint 40 (Canberra Packard S.A., Zürich, Switzerland). The effects of compounds were measured using a minimum of 8 concentrations and repeated at least once. The pooled normalized values were analyzed using a non-linear regression calculation program which provide IC50 with their relative upper and lower 95% confidence limits (RS1, BBN, USA).

NR1C + NR2B = target: T2, NR1C + NR2B (Rattus norvegicus, UniProt P35439+Q00960); experiment: Electrophysiology on recombinant NMDA receptors (voltage clamp, Xenopus laevis oocytes), NR1C + NR2B; assay type: cell-based; conditions: 0.1 µM compound; oocytes clamped to -80 mV; 1.3 µM Glu plus 0.07 µM Gly; mean of four to six oocytes
T2 construct: expressed in transfected cells; host or cells: Xenopus laevis oocytes, nuclear injection of pBC/CMV expression plasmids
T2 sequence (Q00960 27-1482, other chains not shown): as above
Description: (§2) Electrophysiology on recombinant NMDA receptors
(§3) cDNA clones coding for the subunits NR1C and NR2A of the NMDA receptor (see Hollmann and Heinemann, 1994, Annu. Rev. Neurosci. 17:31 for nomenclature of NMDA receptor subunits) were isolated from a rat brain λgt11 cDNA library as published elsewhere (Sigel et al., 1994, J. Biol. Chem. 269:8204). The clone for the subunit NR2B of the rat brain NMDA receptor was obtained from S. Nakanishi (Kyoto, Japan). The cDNAs encoding rat NR1C, NR2A and NR2B were subcloned into the expression vector pBC/CMV (Bertocci et al., 1991, Proc. Natl. Acad. Sci. U.S.A. 88:1416), placing transcription of the cDNA under control of the human cytomegalovirus promoter. CsCl-purified expression plasmids were mixed in a 1:3 ratio of NR1C:NR2A or NR1C:NR2B in injection buffer (88 mM NaCI, 1 mM KCl, 15 mM HEPES, at pH 7.0). Oocytes of South African frogs (Xenopus laevis) were used for expressing either a combination of the NR1C and NR2A subunits or the NR1C and NR2B subunits. 12 to 120 pg of a 1:3 (NR1C:NR2B) mixture of the respective cDNA species were injected into the nucleus of every oocyte. On the following two days the ion current through the NMDA receptor channels was measured in voltage clamp experiments for the methods of cDNA expression in oocytes and voltage-clamping (see, e.g., Bertrand et al., 1991, Methods in Neurosciences 4:174). The membrane potential was clamped to -80 mV and the receptors were activated by applying a modified Ringer's solution containing the NMDA-receptor agonists L-glutamate (Glu) and glycine (Gly). Different agonist concentrations were chosen for either subunit combination to account for the different agonist sensitivities of the two types of receptors (2.7 µM Glu plus 0.9 µM Gly for NR1C + NR2A and 1.3 µM Glu plus 0.07 µM Gly for NR1C + NR2B). The agonists were applied for 15 s intervals once every 2.5 min by rapid superfusion of the oocyte with agonist containing solution and the amplitude of the agonist-evoked current was measured immediately before the end of each application. After a series of initial control applications the antagonist to be tested was added to both, the basal Ringer's and the agonist containing solution. The antagonist concentration applied to oocytes expressing the NR2A subunit was 10 µmol/l, whereas 0.1 µmol/l were applied to the NR2B expressing oocytes. Four to six oocytes were tested for every compound and NMDA receptor subtype. Oocytes were exposed to the compounds for 5 to 30 min depending on the time needed for reaching an equilibrium block of the NMDA receptor current. For every oocyte the decrease of the current amplitude was expressed as a percentage of the control current measured before application of the compound. Figures in the table are arithmetic mean values of these percentage values.

NR1C + NR2A = target: T3, NR1C + NR2A (Rattus norvegicus, UniProt Q00959); experiment: Electrophysiology on recombinant NMDA receptors (voltage clamp, Xenopus laevis oocytes), NR1C + NR2A; assay type: cell-based; conditions: 10 µM compound; oocytes clamped to -80 mV; 2.7 µM Glu plus 0.9 µM Gly; mean of four to six oocytes
T3 construct: expressed in transfected cells; host or cells: Xenopus laevis oocytes, nuclear injection of pBC/CMV expression plasmids
T3 sequence (Q00959 23-1464, other chains not shown): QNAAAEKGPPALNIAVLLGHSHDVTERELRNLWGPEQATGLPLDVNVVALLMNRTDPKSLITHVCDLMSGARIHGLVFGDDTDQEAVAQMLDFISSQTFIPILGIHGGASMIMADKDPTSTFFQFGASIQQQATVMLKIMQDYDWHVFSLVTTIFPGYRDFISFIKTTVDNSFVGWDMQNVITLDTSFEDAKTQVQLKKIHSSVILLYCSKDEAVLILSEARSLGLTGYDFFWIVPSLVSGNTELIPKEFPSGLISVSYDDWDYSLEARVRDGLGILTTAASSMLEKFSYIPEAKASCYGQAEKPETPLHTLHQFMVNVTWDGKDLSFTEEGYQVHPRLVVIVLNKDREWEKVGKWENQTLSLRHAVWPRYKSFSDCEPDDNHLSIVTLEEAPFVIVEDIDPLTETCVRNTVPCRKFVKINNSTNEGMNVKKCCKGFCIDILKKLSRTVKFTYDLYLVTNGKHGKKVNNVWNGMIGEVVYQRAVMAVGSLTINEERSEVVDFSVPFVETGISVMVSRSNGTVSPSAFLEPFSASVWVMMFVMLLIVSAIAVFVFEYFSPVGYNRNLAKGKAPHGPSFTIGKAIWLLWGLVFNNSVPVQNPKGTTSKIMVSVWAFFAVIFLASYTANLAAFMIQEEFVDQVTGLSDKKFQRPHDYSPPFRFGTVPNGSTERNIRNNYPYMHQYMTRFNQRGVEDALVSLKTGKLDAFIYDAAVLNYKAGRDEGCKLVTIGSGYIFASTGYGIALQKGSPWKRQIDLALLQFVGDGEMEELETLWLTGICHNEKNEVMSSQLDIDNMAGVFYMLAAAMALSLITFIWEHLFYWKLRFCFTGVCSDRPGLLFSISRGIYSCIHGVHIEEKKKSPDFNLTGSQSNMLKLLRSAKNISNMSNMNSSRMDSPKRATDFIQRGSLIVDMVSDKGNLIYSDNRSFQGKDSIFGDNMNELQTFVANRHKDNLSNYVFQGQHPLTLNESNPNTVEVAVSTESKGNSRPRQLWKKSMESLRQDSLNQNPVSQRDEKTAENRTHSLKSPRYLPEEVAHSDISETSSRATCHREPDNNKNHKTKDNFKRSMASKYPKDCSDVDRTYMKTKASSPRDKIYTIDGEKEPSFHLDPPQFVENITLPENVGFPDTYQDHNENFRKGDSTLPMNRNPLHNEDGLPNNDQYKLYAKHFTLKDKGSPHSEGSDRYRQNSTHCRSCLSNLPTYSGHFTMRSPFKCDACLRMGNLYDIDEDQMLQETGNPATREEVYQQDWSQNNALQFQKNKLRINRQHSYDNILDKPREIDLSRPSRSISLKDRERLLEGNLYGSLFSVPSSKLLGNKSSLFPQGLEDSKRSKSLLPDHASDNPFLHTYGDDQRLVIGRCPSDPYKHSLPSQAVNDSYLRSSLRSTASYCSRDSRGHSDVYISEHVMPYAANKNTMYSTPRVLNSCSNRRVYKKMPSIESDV
Description: as §2, §3

Row | SMILES | IC50 (NMDA receptor) | IC50 (3H-Prazosine binding) | Electrophysiology NR1C + NR2B % block by 0.1 µM (NR1C + NR2B) | Electrophysiology NR1C + NR2A % block by 10 µM (NR1C + NR2A)
1 | Cc1ccc(CC2(O)CCN(CC3Cc4cc(O)ccc4O3)CC2)cc1 (racemic) [Example 2, (RS)-1-(5-Hydroxy-2,3-dihydro-benzofuran-2-ylmethyl)-4-(4-methyl-benzyl)-piperidin-4-ol hydrochloride] | 20 nM | 3200 nM |  | 
2 | Oc1ccc2c(c1)CC(CN1CCC(O)(Cc3ccccc3)CC1)O2 (racemic) [Example 4, (RS)-4-Benzyl-1-(5-hydroxy-2,3-dihydro-benzofuran-2-ylmethyl)-piperidin-4-ol hydrochloride] | 50 nM | 2500 nM |  | 
3 | Oc1ccc2c(c1)CC(CN1CCC(O)(Cc3ccc(F)cc3)CC1)O2 (racemic) [Example 5, (RS)-4-(4-fluoro-benzyl)-1-(5-hydroxy-2,3-dihydro-benzofuran-2-ylmethyl)-piperidin-4-ol hydrochloride] | 40 nM | 4000 nM |  | 
4 | CCc1ccc(CC2(O)CCN(CC3Cc4cc(O)ccc4O3)CC2)cc1.Cl (racemic) [Example 7, (RS)-4-(4-Ethyl-benzyl)-1-(5-hydroxy-2,3-dihydro-benzofuran-2-ylmethyl)-piperidin-4-ol hydrochloride] | 12 nM | 6000 nM | 89% | 12%
5 | Cc1ccc(CC2(O)CCN(CC3Cc4ccc(O)cc4C3)CC2)cc1 (racemic) [Example 19, (RS)-1-(5-Hydroxy-indan-2-ylmethyl)-4-(4-methyl-benzyl)-piperidin-4-ol] | 55 nM | 3200 nM |  | 
6 | Cc1ccc(CC2(O)CCN(CC3Cc4cc(O)ccc4N3)CC2)cc1 (racemic) [Example 21, (RS)-2-[4-Hydroxy-4-(4-methyl-benzyl)-piperidin-1-ylmethyl]-2,3-dihydro-1H-indol-5-ol] | 55 nM | 6600 nM |  | 
7 | CS(=O)(=O)Nc1ccc2c(c1)CC(CN1CCC(O)(Cc3ccc(Cl)cc3)CC1)O2 (racemic) [Example 22, (RS)-N-{2-[4-(4-chloro-benzyl)-4-hydroxy-pipiridin-1-ylmethyl]-2,3-dihydroxybenzofuran-5-yl}methane sulfonamide hydrochloride] |  | 6500 nM |  | 
8 | Cc1ccc(CC2(O)CCN(CC3Cc4cc(NS(C)(=O)=O)ccc4O3)CC2)cc1 (racemic) [Example 23, (RS)-N(2-[4-hydroxy-4-(4-methyl-benzyl)-piperidin-1-ylmethyl]-2,3-dihydrobenzofuran-5-yl]-methane sulfonamide hydrochloride] | 40 nM | 2300 nM |  | 
9 | Cc1ccc(CC2(O)CCN(C[C@H]3CCc4cc(O)ccc4[C@@H]3O)CC2)cc1.O=C(O)/C=C/C(=O)O (racemic) [Example 27, (1RS, 2RS)-1-(1,6-Dihydroxy-1,2,3,4-tetrahydro-naphthalen-2-ylmethyl)-4-(4-methyl-benzyl)-piperidin-4-ol fumarate salt] |  | 6000 nM | 91% | 15%
10 | Oc1ccc2c(c1)CC[C@H](CN1CCC(O)(Cc3ccccc3)CC1)[C@H]2O (racemic) [Example 29, (1RS,2RS)-2-(4-Benzyl-4-hydroxy-piperidin-1-yl-methyl)-6-hydroxy-1,2,3,4-tetrahydro-naphthalen-1-ol] | 23 nM | 11000 nM |  | 
11 | Cc1ccc(CC2(O)CCN(CC3CCc4cc(O)ccc4C3)CC2)cc1 (racemic) [Example 30, (RS)-1-(6-Hydroxy-1,2,3,4-tetrahydro-naphthalen-2-ylmethyl)-4-(4-methyl-benzyl)-piperidin-4-ol hydrochloride] | 20 nM | 800 nM |  | 
12 | Cc1ccc(CC2(O)CCN(C[C@@H]3Cc4cc(O)ccc4O3)CC2)cc1.Cl [Example 13, (S)-1-(5-Hydroxy-2,3-dihydro-benzofuran-2-ylmethyl)-4-(4-methyl-benzyl)-piperidin-4-ol hydrochloride] | 14 nM | 6000 nM | 93% | 8%
13 | Cl.Oc1ccc2c(c1)C[C@@H](CN1CCC(O)(Cc3ccc(Cl)cc3)CC1)O2 [Example 14, (S)-1-(5-Hydroxy-2,3-dihydro-benzofuran-2-ylmethyl)-4-(4-chloro-benzyl)-piperidin-4-ol hydrochloride] | 5 nM | 6000 nM | 90% | 9%
14 | Cc1ccc(CC2(O)CCN(CC3Cc4cc(O)ccc4C3O)CC2)cc1 (stereo not drawn) [Example 16, (1RS,2RS) and (1RS,2SR)-2-[4-Hydroxy-4-(4-methyl-benzyl)-piperidine-1-ylmethyl]-indan-1,5-diol fumarate salt] | 23 nM | 5000 nM | 86% | 6%
